Test system: transverse heart sections from Ang II-infused WT mice
Assay: Angiotensin II infusion prevention model: cardiac hypertrophy, fibrosis, ROS and inflammatory markers
Type: in vivo, mouse
Conditions: Ang II + HFI-419, 4 weeks
Method: There are 8 different sets of in vivo experiments in this study: • A) Phenotypic characterisation of the heart and blood vessels in global IRAP knockout mice and their WT controls treated for 4 weeks with Angiotensin (Ang) II (800 ng/kg/min; s.c.) where mouse hearts and blood vessels were compared to tissue obtained from young WT and IRAP^−/− mice treated with saline. • B) Prevention of Ang II-induced changes in the cardiovascular system following IRAP inhibitor treatment. In the prevention model, WT mice were treated with Ang II (800 ng/kg/min; s.c.)±the IRAP inhibitor (HFI-419; 500 ng/kg/min for 28 days) or HFI-vehicle (1 DMSO:3 HBC). • C) Phenotypic characterisation of the aged heart, kidney and blood vessels in the global IRAP knockout mice where aged WT and IRAP^−/− mouse hearts, kidneys and blood vessels were compared to tissue obtained from young WT and IRAP^−/− mice. • D) Reversal of the age-induced changes in the cardiovascular system following IRAP inhibitor treatment. In the reversal model, aged WT mice were treated with either saline, IRAP inhibitor (HFI-419 at 500 ng/kg/min; compound 1 at 500 ng/kg/min; compound 2 at 50 ng/kg/min) or HFI-vehicle (1 DMSO: 3 HBC) for 4 weeks. • E) Prevention of ischemic-reperfusion injury in isolated hearts taken from aged global IRAP knockout mice and aged IRAP inhibitor (HFI-419 at 500 ng/kg/min; s.c.) treated WT mice compared to age-matched vehicle-treated (1 DMSO:3 HBC; s.c.) WT controls. • F) Phenotypic characterization of cardiac function using echocardiography in the aged global IRAP knockout mice compared to aged and young WT mice. • G) Phenotypic characterization of liver steatosis in IRAP knockout mice in a high fat diet (HFD) model. • H) Reversal of the salt-induced fibrosis in the liver following IRAP inhibitor treatment.
To measure collagen deposition, frozen sections of heart, kidney or aorta (all 5 μm thickness) were air dried for 10 minutes and were brought through 3 times xylene (2 minutes each), and 3 times absolute alcohol washes before being rinsed in tap H2O for 30 seconds. Staining with an optimal concentration of picrosirius red (in this instance 0.05% picrosirius red diluted in saturated picric acid) was performed and left for an hour. Sections were then rinsed in water and differentiated in 0.01 M HCl for 2 minutes, followed by dehydration via 3 times absolute alcohol washes. Then, slides were brought through 3 times xylene washes before being cover slipped according to standard histological techniques using DPX as the mounting medium. Images were taken under ×20 magnification, using bright field (Olympus, BX51) and circularized polarized light microscopy (DM IRB, Leica) while percentage of positive interstitial collagen staining per total field of view was quantified using ImageJ 1.46 software (Java, NIH), and averaged out from a total of eight views as the final percentage collagen content in a particular animal.
Ventricular weight (VW) was compared to the body weight (BW) as a ratio of VW:BW (mg/g), as well as comparison of VW to tibial length (TL) in as a ratio of VW:TL (mg/mm) respectively. The hearts that were embedded in OCT and frozen were transversely sectioned in a cryostat at 5 μm thickness, and stained with Hematoxylin and Eosin (Amber Scientific) for morphological examination of cell structure. The average of 100 cardiomyocytes per heart section was performed under 60× magnification and analyzed using Image J.
Immunostaining was performed on either 5 μm thick transverse frozen heart sections or 5 μm thick frozen thoracic aortic. These sections were air dried and fixed in ice-cold acetone for approximately 15 minutes before washing with 0.01M PBS buffer (3×10 minutes). Sections were then incubated with 10% goat serum in 0.01M PBS for 30 minutes to reduce non-specific binding. […]

What does the source list for `CCOC(=O)C1=C(NC(C)=O)Oc2cc(O)ccc2C1c1cccnc1` (stereo not drawn) [HFI-419]?
Ang II-mediated increase in cardiac hypertrophy (cardiomyocyte cross-sectional area, H&E) (FIG. 5a): prevented; interstitial collagen expression in heart (picrosirius red, brightfield) (FIG. 5b): significantly decreased; protein expression of TGF-β1 in heart (western blot) (FIG. 6): decreased; vimentin staining in heart (marker for fibroblast expression) (FIG. 6): no change; α-SMA staining in heart (marker for myofibroblast expression) (FIG. 6): decreased; Ang II-induced increase in cardiac superoxide generation (DHE) (FIG. 7): prevented; ICAM-1 expression and protein content in heart (FIG. 7): decreased; MCP-1 expression in heart (FIG. 7): decreasing; P-IκBα expression in heart (FIG. 7): decreased; expression of NOX-2 in heart (FIG. 7): no effect; macrophage (F4/80) expression in heart (FIG. 7): decreasing; perivascular expression of TGF-β1 in heart (immunofluorescence, FIG. 6): decreased

Reference: US11834663B2, “Fibrotic treatment” (Monash University, priority 2015, dated 2023)
